Measurements as given in publication PMC6982817, “Substituted N-(Pyrazin-2-yl)benzenesulfonamides; Synthesis, Anti-Infective Evaluation, Cytotoxicity, and In Silico Studies” (Molecules, 2019).
Values after ≈ are worked out from the molar mass of the structure shown. Where two headings read alike, the source gives them in different places.

Columns and labels:
[1] = system: Mycobacterium tuberculosis H37Rv CNCTC My 331/88 (ATCC 27294); test: Antimycobacterial microplate alamar blue assay, M. tuberculosis H37Rv; assay type: cell-based; settings: for MIC: Mycobacterium tuberculosis
[2] = system: M. kansasii CNCTC My 235/80 (ATCC 12478); test: Antimycobacterial microplate alamar blue assay, M. kansasii; assay type: cell-based, Mycobacterium kansasii; settings: Mycobacterium kansasii
[3] = system: M. avium ssp. avium CNCTC My 80/72 (ATCC 15769); test: Antimycobacterial microplate alamar blue assay, M. avium; assay type: cell-based, Mycobacterium avium; settings: for MIC: Mycobacterium avium
[4] = system: Mycobacterium smegmatis DSM 43465 (ATCC 607); test: Antimycobacterial microdilution assay, M. smegmatis; assay type: cell-based; settings: Middlebrook 7H9 broth, resazurin after 48 hours; for MIC: Mycolicibacterium smegmatis, 48 h, read-out: Antimycobacterial Activity MIC M. smeg
[5] = system: Mycobacterium aurum DSM 43999 (ATCC 23366); test: Antimycobacterial microdilution assay, M. aurum; assay type: cell-based; settings: Middlebrook 7H9 broth, resazurin after 72 hours; for MIC: Mycolicibacterium aurum, 72 h
[6] = in vitro; settings: human
[7] = physchem
Protocol: (§1) Three compounds 6b, 9b and 13b were selected and their pKa values were determined experimentally using potentiometric and absorbance methods (Table 2).
(§2) For the spectrophotometric method, 1 μM solution of the compound in question was prepared in methanol. The spectra of the sample at several (at least seven) different pH values were measured against blank (water) using a Helios spectrophotometer (Unicam Cambridge). The pH valued covered the region in which all sample molecules were converted from ionized to molecular form or vice versa. Each cuvette contained 200 μL of the sample solution and 1.8 mL of the corresponding buffer. The pH values used and the absorbances allowed us to calculate the pKa of the sample according to the following equation: pKa=pH+log(Ai−A/A−Au) where A is the absorbance of the compound at the corresponding buffer, Ai is the absorbance of the ionized state of the compound and Au is the absorbance of the unionized state. The final pKa was the average of all the pKa at different pH values. For the potentiometric measurements, 1 μM solution of the compound in question was prepared in 3:2 water:methanol, with the addition of 100 μL of 0.1% NaOH. Then small amounts (100 μL) of 0.01% HCl were added repeatedly and the pH was measured each time using a pH meter (inoLab® pH 7110 Czech Republic). The inflection point of the titration curve determined the pKa.

[8] = physchem; remark: listed apart in the source
Protocol: as §1, §2

[9] = system: Mycobacterium tuberculosis H37Rv CNCTC My 331/88 (ATCC 27294); settings: cited from earlier work; for Antimycobacterial Activity MIC against Mtb H37Rv, Retro-amide: previously published N-pyrazinylbenzamides; for Antimycobacterial Activity MIC against Mtb H37Rv, Amide: previously published pyrazinecarboxamides, methodology not identical
[10] = system: HepG2 cells; settings: cited from earlier work
[11] = system: Staphylococcus aureus CCM 4223 (ATCC 29213); test: Antibacterial microdilution broth, S. aureus; assay type: cell-based; settings: 48 h, read-out: MIC against Staphylococcus aureus
[12] = system: Staphylococcus aureus methicillin-resistant CCM 4750 (ATCC 43300); test: Antibacterial microdilution broth, MRSA; assay type: cell-based; settings: 48 h, read-out: MIC against Staphylococcus aureus methicillin resistant
[13] = system: Enterococcus faecalis CCM 4224 (ATCC 29212); test: Antibacterial microdilution broth, E. faecalis; assay type: cell-based; settings: 48 h, read-out: MIC against Enterococcus faecalis
[14] = system: Escherichia coli CCM 3954 (ATCC 25922); test: Antibacterial microdilution broth, E. coli; assay type: cell-based; settings: 48 h, read-out: MIC against Escherichia coli
[15] = system: Pseudomonas aeruginosa CCM 3955 (ATCC 27853); test: Antibacterial microdilution broth, P. aeruginosa; assay type: cell-based; settings: 48 h, read-out: MIC against Pseudomonas aeruginosa
[16] = system: Staphylococcus epidermidis 112-2016; test: Antibacterial microdilution broth, S. epidermidis; assay type: cell-based; settings: Staphylococcus epidermidis, 1122016, 48 h; read-out: MIC against Staphylococcus epidermidis
[17] = system: Klebsiella pneumoniae 64-2016; test: Antibacterial microdilution broth, K. pneumoniae; assay type: cell-based; settings: Klebsiella pneumoniae, 642016, 48 h; read-out: MIC against Klebsiella pneumonia
[18] = system: Serratia marcescens 62-2016; test: Antibacterial microdilution broth, S. marcescens; assay type: cell-based; settings: Serratia marcescens, 622016, 48 h; read-out: MIC against Serratia marcescens
[19] = system: Candida albicans CCM 8320 (ATCC 24433); test: Antifungal microdilution broth, C. albicans; assay type: cell-based; settings: 48 h, read-out: MIC against Candida albicans
[20] = system: C. krusei CCM 8271 (ATCC 6258); test: Antifungal microdilution broth, C. krusei; assay type: cell-based, Candida krusei; settings: Pichia kudriavzevii, 48 h; read-out: MIC against C. krusei
[21] = system: C. parapsilosis CCM 8260 (ATCC 22019); test: Antifungal microdilution broth, C. parapsilosis; assay type: cell-based, Candida parapsilosis; settings: Lodderomyces parapsilosis, 48 h; read-out: MIC against C. parapsilosis
[22] = system: C. tropicalis CCM 8264 (ATCC 750); test: Antifungal microdilution broth, C. tropicalis; assay type: cell-based; settings: Candida tropicalis, 48 h; read-out: MIC against C. tropicalis
[23] = system: Aspergillus flavus CCM 8363; test: Antifungal microdilution broth, A. flavus; assay type: cell-based; settings: CCM8363, 48 h, read-out: MIC against Aspergillus flavus
[24] = system: Lichtheimia corymbifera CCM 8077; test: Antifungal microdilution broth, L. corymbifera; assay type: cell-based; settings: CCM8077, 48 h, read-out: MIC against Lichtheimia corymbifera
[25] = system: Trichophyton interdigitale CCM 8377 (ATCC 9533); test: Antifungal microdilution broth, T. interdigitale; assay type: cell-based; settings: 72 h, read-out: MIC against Trichophyton interdigitale
[26] = system: Aspergillus fumigatus ATCC 204305; test: Antifungal microdilution broth, A. fumigatus; assay type: cell-based; settings: ATCC204305, 48 h, read-out: MIC against Aspergillus fumigatus
[27] = system: four Gram-positive and four Gram-negative bacterial strains; test: Antibacterial screening, microdilution broth, panel of eight strains; assay type: cell-based; settings: concentration scale 500–0.97 μM
[28] = pH 6.6, Middlebrook 7H9 broth pH 6.6, alamar blue, read-out: Antimycobacterial Activity MIC Mtb H37Rv
[29] = ATCC12478, pH 6.6, Middlebrook 7H9 broth pH 6.6, alamar blue, read-out: Antimycobacterial Activity MIC M. kansasii
[30] = ATCC15769, pH 6.6, Middlebrook 7H9 broth pH 6.6, alamar blue, read-out: Antimycobacterial Activity MIC M. avium
[31] = Middlebrook 7H9 broth pH 6.6, alamar blue
[32] = ATCC12478, molar value printed beside μg/mL in text, read-out: MIC M. kansasii

## O=S(=O)(Nc1cncc(Cl)n1)c1ccc2ccccc2c1 [Compound 13b, N-(6-chloropyrazin-2-yl)naphthalene-2-sulfonamide]
[1]; [28]
  MIC: 50 mg/L
[2]; [29]
  MIC: 50 mg/L
[3]; [30]
  MIC: > 100 mg/L
[4]
  MIC: 125 mg/L (≈ 391 µM)
[5]
  MIC: 250 mg/L (≈ 782 µM)
other
  melting point: 204.6 to 207 °C
[6]
  IC50 at 24 h: > 1000 µM
[7]
  pKa: 5.63
[8]
  pKa: 5.75

## COc1ccc(S(=O)(=O)Nc2cncc(Cl)n2)cc1 [Compound 6b, N-(6-chloropyrazin-2-yl)-4-methoxybenzenesulfonamide]
[1]; [28]
  MIC: > 100 mg/L
[2]; [29]
  MIC: 100 mg/L
[3]; [30]
  MIC: > 100 mg/L
[4]
  MIC: ≥ 500 mg/L
[5]
  MIC: ≥ 500 mg/L
[6]
  IC50 at 24 h: > 1000 µM
[7]
  pKa: 6.95
[8]
  pKa: 7.21

## O=C(Nc1cnccn1)c1ccccc1 [Retro-amide R^1 H R^2 H]
[9]
  Antimycobacterial Activity MIC against Mtb H37Rv, Retro-amide: >100 mg/L

## NNC(=O)c1ccncc1 [INH, reference compound]
[1]; [31]
  Antimycobacterial Activity MIC Mtb H37Rv: 0.2 mg/L
[1]; [28]
  MIC: 0.1 to 0.2 mg/L
[2]; [32]
  MIC: 182 µM
[3]; [31]
  Antimycobacterial Activity MIC M. avium: 12.5 mg/L
[3]; [30]
  MIC: 6.25 to 12.5 mg/L
[10]
  IC50: 79000 µM

## COc1ccc(C(=O)Nc2cnccn2)cc1 [Retro-amide R^1 H R^2 4-OCH3]
[9]
  Antimycobacterial Activity MIC against Mtb H37Rv, Retro-amide: >100 mg/L

## CNC(C)C1CCC(N)C(OC2C(N)CC(N)C(OC3OCC(C)(O)C(NC)C3O)C2O)O1 (stereo not drawn) [gentamicin]
[11]
  MIC: 1 mg/L (≈ 2.09 µM)
[12]
  MIC: 16 to 32 mg/L (≈ 33.5 to 67 µM)
[13]
  MIC: 8 mg/L (≈ 16.8 µM)
[14]
  MIC: 1 to 2 mg/L (≈ 2.09 to 4.19 µM)
[15]
  MIC: 0.5 mg/L (≈ 1.05 µM)
[16]
  MIC: > 8 mg/L
[17]
  MIC: > 8 mg/L
[18]
  MIC: 2 mg/L (≈ 4.19 µM)

## Cc1cc(C)c(S(=O)(=O)Nc2cncc(Cl)n2)c(C)c1 [Compound 9b, N-(6-chloropyrazin-2-yl)-2,4,6-trimethylbenzenesulfonamide]
[1]; [28]
  MIC: > 100 mg/L
[2]; [29]
  MIC: 50 mg/L
[3]; [30]
  MIC: > 100 mg/L
[4]
  MIC: ≥ 500 mg/L
[5]
  MIC: ≥ 500 mg/L
other
  melting point: 179.7 to 180.2 °C
[6]
  IC50 at 24 h: 180 µM
[7]
  pKa: 6.32
[8]
  pKa: 6.38

## C[C@@H](c1ncncc1F)[C@](O)(Cn1cncn1)c1ccc(F)cc1F [voriconazole]
[19]
  MIC: > 16 mg/L
[20]
  MIC: 0.5 mg/L (≈ 1.43 µM)
[21]
  MIC: 8 mg/L (≈ 22.9 µM)
[22]
  MIC: > 16 mg/L
[23]
  MIC: > 16 mg/L
[24]
  MIC: > 16 mg/L
[25]
  MIC: > 16 mg/L
[26]
  MIC: 1 mg/L (≈ 2.86 µM)

## Cc1cc(NS(=O)(=O)c2ccc(N)cc2)no1 [Sulfamethoxazole, 4-amino-N-(5-methylisoxazol-3-yl)benzenesulfonamide, reference compound]
[1]; [28]
  MIC: 3.13 mg/L
[1]; read-out: MIC Mtb H37Rv
  MIC: 12 µM
[2]; [32]
  MIC: 12 µM
[2]; [29]
  MIC: 3.13 mg/L
[3]; ATCC15769, molar value printed beside μg/mL in text, read-out: MIC M. avium
  MIC: 49 µM
[3]; [30]
  MIC: 12.5 mg/L
[4]
  MIC: 250 mg/L (≈ 987 µM)
[5]
  MIC: ≥ 500 mg/L
[27]
  antibacterial activity MIC: not active against any of the tested bacterial strains

## O=C(Nc1ccccc1)c1cnccn1 [Amide R^1 H R^2 H]
[9]
  Antimycobacterial Activity MIC against Mtb H37Rv, Amide: 100 mg/L

## O=C(Nc1ccccc1)c1cncc(Cl)n1 [Amide R^1 6-Cl R^2 H]
[9]
  Antimycobacterial Activity MIC against Mtb H37Rv, Amide: >100 mg/L

## C[C@@H]1[C@H](O)[C@@H](C)/C=C/C=C/C=C/C=C/C=C/C=C/C=C/[C@H](O[C@@H]2O[C@H](C)[C@@H](O)[C@H](N)[C@@H]2O)C[C@@H]2O[C@](O)(C[C@@H](O)C[C@@H](O)[C@H](O)CC[C@@H](O)C[C@@H](O)CC(=O)O[C@H]1C)C[C@H](O)[C@H]2C(=O)O [amphotericin B]
[20]
  MIC: 1 mg/L (≈ 1.08 µM)
[21]
  MIC: 0.5 mg/L (≈ 0.541 µM)
[22]
  MIC: 1 mg/L (≈ 1.08 µM)
[23]
  MIC: 8 mg/L (≈ 8.66 µM)
[24]
  MIC: 0.5 mg/L (≈ 0.541 µM)
[25]
  MIC: 2 mg/L (≈ 2.16 µM)

## COc1ccc(NC(=O)c2cnccn2)cc1 [Amide R^1 H R^2 4-OCH3]
[9]
  Antimycobacterial Activity MIC against Mtb H37Rv, Amide: 25 mg/L

## O=C(O)c1cn(C2CC2)c2cc(N3CCNCC3)c(F)cc2c1=O [CPX]
[4]
  Antimycobacterial Activity MIC M. smeg: 0.125 mg/L
  MIC: 0.0625 to 0.125 mg/L (≈ 0.189 to 0.377 µM)
[5]
  Antimycobacterial Activity MIC M. aurum: 0.008 mg/L
  MIC: 0.00781 to 0.0156 mg/L (≈ 0.0236 to 0.0472 µM)
[11]
  MIC: 0.128 to 0.256 mg/L (≈ 0.386 to 0.773 µM)
[12]
  MIC: 0.128 mg/L (≈ 0.386 µM)
[13]
  MIC: 0.512 mg/L (≈ 1.55 µM)
[14]
  MIC: 0.008 mg/L (≈ 0.0241 µM)
[15]
  MIC: 0.128 mg/L (≈ 0.386 µM)
[16]
  MIC: > 1.02 mg/L
[17]
  MIC: > 1.02 mg/L
[18]
  MIC: 0.256 mg/L (≈ 0.773 µM)

## O=C(Nc1cncc(Cl)n1)c1ccccc1 [Retro-amide R^1 6-Cl R^2 H]
[9]
  Antimycobacterial Activity MIC against Mtb H37Rv, Retro-amide: 25 mg/L

## NC(=O)c1cnccn1 [PZA, reference compound]
[1]; [28]
  MIC: > 100 mg/L
[2]; [29]
  MIC: > 100 mg/L
[3]; [30]
  MIC: > 100 mg/L
[4]
  MIC: ≥ 500 mg/L
[5]
  MIC: ≥ 500 mg/L
[10]
  IC50: > 10000 µM
